Consider four molecules from patent publication US7977375B2, “Antibiotic and method of production thereof” (Helmholtz-Zentrum Für Infektionsforschung GmbH, priority 2004, dated 2011).

Converted amounts (≈) assume the structure as drawn.

In one series the test system is MRSA 3. Description: MIC / MBC in liquid culture. The class given is cell-based, Staphylococcus aureus. The note with it: Staphylococcus aureus; MRSA 3; read-out: MIC (minimal inhibitory concentration).
Series [1] concerns B. cepacia SCV 141. Put plainly: MIC / MBC in liquid culture. The class given is cell-based, Burkholderia cepacia. Conditions: Burkholderia cepacia, SCV141, read-out: MIC (minimal inhibitory concentration). From the text:
(§1) 7-O-malonyl macrolactin A was not effective against some of the gram-negative bacteria tested by the inventors.

For another series, the system named is B. cepacia WT139. Put plainly: MIC / MBC in liquid culture. The class given is cell-based, Burkholderia cepacia. Conditions: Burkholderia cepacia, read-out: MIC (minimal inhibitory concentration).
From the text: as §1

Series [2] concerns E. faecium VRAR E315. Description: agar diffusion method, inhibition zone. The class given is cell-based, Enterococcus faecium. Conditions: E. faecium VRAR E315, MH agar, 18 hours at 37° C., per disk 10 μl crude extract, 50 μg macrolactin, 78 μg erythromycin, 30 μg vancomycin, 10 μg ampicillin. As to the method: (§2) The agar diffusion method employing Mueller-Hinton (MH) agar (Difco Laboratories) was used to determine effectiveness against bacteria and yeasts. Sterile paper disks (Schleicher & Schüell, Germany) were seeded with 10 μl crude extract or with a solution of purified macrolactin (final compound concentration on the disk 50 μg) and then placed on the surface of MH-agar plates that had been seeded beforehand with a suspension of overnight culture of the test microorganisms at a concentration of 10^5 cells/ml.

Series [3] concerns E. faecalis VRAS E305. Put plainly: agar diffusion method, inhibition zone. The class given is cell-based, Enterococcus faecalis. Conditions: E. faecalis VRAS E305, MH agar, 18 hours at 37° C., per disk 10 μl crude extract, 50 μg macrolactin, 78 μg erythromycin, 30 μg vancomycin, 10 μg ampicillin. As to the method: as §2
On the technique in general: Agar diffusion results depend on both activity and mobility in agar.

In series [4] the test system is E. faecalis ATCC 29212. Description: agar diffusion method, inhibition zone. Conditions: E. faecalis ATCC 29212, MH agar, 18 hours at 37° C., per disk 10 μl crude extract, 50 μg macrolactin, 78 μg erythromycin, 30 μg vancomycin, 10 μg ampicillin. The class given is cell-based, Enterococcus faecalis. The method, then: as §2
Series [5] has as its system E. faecium VRAR E315. Description: MIC / MBC in liquid culture. In kind it is cell-based, Enterococcus faecium. The note with it: Enterococcus faecium, VRARE315; E. faecium VRAR E315; read-out: MIC (minimal inhibitory concentration).
The subject of series [6] is E. faecalis VRAS E305. Description: MIC / MBC in liquid culture. The class given is cell-based, Enterococcus faecalis. The note with it: Enterococcus faecalis, VRASE305; E. faecalis VRAS E305; read-out: MIC (minimal inhibitory concentration).
For a further series, the system named is MRSA 2. Put plainly: MIC / MBC in liquid culture. The class given is cell-based, Staphylococcus aureus. Conditions: Staphylococcus aureus; MRSA 2; read-out: MIC (minimal inhibitory concentration).
In series [7] the test system is S. aureus # (non-methicillin-resistant reference strain). Put plainly: MIC / MBC in liquid culture. The note with it: Staphylococcus aureus; S. aureus #; read-out: MIC (minimal inhibitory concentration). In kind it is cell-based, Staphylococcus aureus.
The test system of a further series is S. aureus DSMZ 1104. Description: agar diffusion method, inhibition zone. Conditions: S. aureus DSMZ 1104, MH agar, 18 hours at 37° C., per disk 10 μl crude extract, 50 μg macrolactin, 78 μg erythromycin, 30 μg vancomycin, 10 μg ampicillin. In kind it is cell-based, Staphylococcus aureus. As to the method:
as §2

The subject of series [8] is MRSA 2 (methicillin-resistant S. aureus, clinical isolate). Put plainly: agar diffusion method, inhibition zone. In kind it is cell-based, Staphylococcus aureus. The note with it: MRSA 2, MH agar, 18 hours at 37° C., per disk 10 μl crude extract, 50 μg macrolactin, 78 μg erythromycin, 30 μg vancomycin, 10 μg ampicillin. The method, then:
as §2

In series [9] the test system is MRSA 3 (methicillin-resistant S. aureus, clinical isolate). Put plainly: agar diffusion method, inhibition zone. The class given is cell-based, Staphylococcus aureus. The note with it: MRSA 3, MH agar, 18 hours at 37° C., per disk 10 μl crude extract, 50 μg macrolactin, 78 μg erythromycin, 30 μg vancomycin, 10 μg ampicillin. As to the method:
as §2

For series [10], the system named is S. aureus # (own collection, methicillin-sensitive control strain). Put plainly: agar diffusion method, inhibition zone. In kind it is cell-based, Staphylococcus aureus. The note with it: S. aureus # own collection, MH agar, 18 hours at 37° C., per disk 10 μl crude extract, 50 μg macrolactin, 78 μg erythromycin, 30 μg vancomycin, 10 μg ampicillin. The method, then: as §2

Series [11] deals with B. cepacia SCV 141. Put plainly: agar diffusion method, inhibition zone. In kind it is cell-based, Burkholderia cepacia. The note with it: 18 hours at 37° C., per disk 10 μl crude extract, 50 μg macrolactin, 78 μg erythromycin, 10 μg ampicillin. The method, then: as §2
The B. cepacia strain used, which is a clinical isolate from a cystic fibrosis patient, forms small colonies (SCV 141).

The test system of series [12] is E. faecalis ATCC 29212. Description: MIC / MBC in liquid culture. In kind it is cell-based, Enterococcus faecalis. The note with it: Enterococcus faecalis, ATCC29212, E. faecalis ATCC 29212; read-out: MIC (minimal inhibitory concentration).
Series [13] deals with Candida albicans DSM 11225. Put plainly: MIC / MBC in liquid culture. In kind it is cell-based. Conditions: DSM11225, read-out: MIC (minimal inhibitory concentration).
The test system of series [14] is Candida parapsilosis DSM5784. Description: MIC / MBC in liquid culture. In kind it is cell-based. The note with it: Lodderomyces parapsilosis, read-out: MIC (minimal inhibitory concentration).
A further series concerns Candida krusei DSM 6128. Description: MIC / MBC in liquid culture. In kind it is cell-based. The note with it: Pichia kudriavzevii, DSM6128, read-out: MIC (minimal inhibitory concentration).
A further series deals with bacteria. Conditions: state of the art; cited from earlier work.
In series [15] the test system is L929 mouse fibroblast cells. Put plainly: inhibition of proliferation, CyQUANT cell proliferation test. Conditions: 5 days. The class given is cell-based. The method, then: The cytotoxicity of 7-O-malonyl macrolactin A was compared to that of 7-O-succinyl macrolactin A and macrolactin A in vitro with respect to the inhibition of the proliferation of L929 mouse fibroblast cells or the human epithelial cell line HeLa.
For the cell culture, the HeLa cells were cultivated in low-glucose DMEM medium (Gibco), and the L929 cells in high-glucose DMEM medium. Both were supplemented with 10% by volume foetal calf serum (Gibco) at 37° C. in an atmosphere containing 5% CO2. The cells were extracted from stock cultures by means of trypsinization with EDTA (HeLa) or without EDTA (L929), then counted and diluted to 2×10^5 cells/ml. For the tests, microtitre plates (Nunc.) comprising 96 depressions were plated out in serial dilution without or in the presence of the test compounds or methanol. Determination of morphological alterations of the cells was carried out by means of phase contrast microscopy after 1, 2 and 5 days incubation.
After 5 days cultivation, cell counts were determined by the CyQUANT cell proliferation test (Molecular Probes), which is a highly sensitive microtitre plate test based on fluorescence. The test employs the dye CyQUANT, which, by binding to cellular nucleic acids, enhances fluorescence, which can then be measured by fluorescein excitation. The emission of fluorescence by the dye-nucleic acid complex correlated linearly with the cell count. For test purposes, the residue was carefully removed after 5 days incubation, the cells washed with PBS (phosphate buffered saline solution), the buffer removed and the cells frozen at −80° C. For the test, the cells were thawed at ambient temperature and lysated in a buffered solution containing the dye CyQUANT, in accordance with manufacturer's instructions. Fluorescence was measured by means of a fluormetric microtitre-plate reader (Titertex Fluorskan II) (excitation at 480 nm, emission at 520 nm). The […] were used to calculate the percentage of cellular proliferation in medium both alone and in the presence of serial dilutions of methanol and the macrolactin compounds. […] Proliferation was measured by means of the fluorescence-based test CyQUANT for determining viable cell counts. Table 5 illustrates the relative inhibition of proliferation as compared to a control culture comprising fresh medium without the addition of a macrolactin.

For another series, the system named is HIV. Conditions: state of the art; cited from earlier work.
For series [16] the following is noted: state of the art; cited from earlier work.
The conditions of series [17]: JP 9301970; cited from earlier work.

Take `CC[C@H]1OC(=O)[C@H](C)[C@@H](O[C@H]2C[C@@](C)(OC)[C@@H](O)[C@H](C)O2)[C@H](C)[C@@H](O[C@@H]2O[C@H](C)C[C@H](N(C)C)[C@H]2O)[C@](C)(O)C[C@@H](C)C(=O)[C@H](C)[C@@H](O)[C@]1(C)O` [Erythromycin, erythromycin]: the MIC was greater than 128 µg/mL in the series with MRSA 3; 128 µg/mL (≈ 174 µM) in the series on B. cepacia SCV 141 [1]; greater than 128 µg/mL in the series with B. cepacia WT139; 2 µg/mL (≈ 2.73 µM) in the series on E. faecium VRAR E315 [5]; 128 µg/mL (≈ 174 µM) with E. faecalis VRAS E305 [6]; greater than 128 µg/mL in the series on MRSA 2. Further, the results for the MIC (in series [7]; in the series with E. faecalis ATCC 29212 [12]) were 0.06 µg/mL (≈ 0.0818 µM) and 2 µg/mL (≈ 2.73 µM), respectively. For the same molecule, the zone of inhibition (commonly the extent of the growth-free halo in a diffusion test) at 78 µg/disc was found to be 25 mm in the series with E. faecium VRAR E315 [2] (Enterococcus faecium, VRARE315); 0 mm with E. faecalis VRAS E305 [3] (Enterococcus faecalis, VRASE305); 25 mm in the series on E. faecalis ATCC 29212 [4] (Enterococcus faecalis, ATCC29212); 30 mm with S. aureus DSMZ 1104 (Staphylococcus aureus, DSMZ1104); 0 mm in series [8] (Staphylococcus aureus); 0 mm in [9] (Staphylococcus aureus). In addition, the zone of inhibition at 78 µg/disc in [10] (Staphylococcus aureus) is 40 mm; with B. cepacia SCV 141 [11] (Burkholderia cepacia, SCV141, MH agar), 0 mm.
In the case of `Clc1ccc(COC(Cn2ccnc2)c2ccc(Cl)cc2Cl)c(Cl)c1` (stereo not shown) [MCZ, miconazol], the MIC (in [13]; in [14]; with Candida krusei DSM 6128) was 2 µg/mL (≈ 4.81 µM) throughout.
For `C[C@@H]1CCC/C=C/C=C/C(O)CC(O)C/C=C\C=C\C(O)C/C=C/C=C\C(=O)O1` (stereo partly drawn) [Macrolactin A, 8, 14, 16-trihydroxy-24(R)-methyl-oxacyclotetracosa-3(Z), 5(B), 9(E), 11(Z), 17(E), 19(E)-hexaen-2-on], the “antibacterial activity” value in the series on bacteria is reported as “relatively weak”. Also, the Inhibition of proliferation in [15] (compound concentration 3.9 μg/ml) amounted to 23%; in series [15] (compound concentration 7.8 μg/ml), 29%; in series [15] (compound concentration 15.6 μg/ml), 38%; in series [15] (compound concentration 31.25 μg/ml), 81%; in series [15] (compound concentration 56.5 μg/ml), 83%; in [15] (compound concentration 125 μg/ml), 83%. Further, the “antiviral activity” value in the series with HIV is “active against HIV”. Besides, the Inhibition zone is on record as 0 mm in the series with E. faecium VRAR E315 [2]; 0 mm in the series with E. faecalis VRAS E305 [3]; 0 mm in the series on E. faecalis ATCC 29212 [4]; 18 mm in the series with S. aureus DSMZ 1104; 27 mm in [8]; 35 mm in [9]. Besides, the Inhibition zone is on record as 25 mm in series [10] and 0 mm with B. cepacia SCV 141 [11] (MH agar). For the same molecule, the “cytotoxicity” value in [16] is “cytotoxic”.
With macrolactin M, the “antimicrobial activity” value in series [17] is on record as “antimicrobially active”.
